In Sander's compilation of Henry's law constants (doi:10.1016/j.chemosphere.2021.129858):

Test: Henry solubility constant Hcp at 298.15 K (mol/(m3 Pa))
Settings: reference: Schwardt et al. (2021)

Row | SMILES | Henry solubility constant Hcp
1 | ClCC(Cl)(Cl)Cl [1,1,1,2-tetrachloroethane] | 0.0045
2 | ClCC(Cl)Cl [1,1,2-trichloroethane] | 0.0073
3 | C=C(Cl)Cl [1,1-dichloroethene] | 0.0004
4 | Cc1ccc(C)cc1 [1,4-dimethylbenzene] | 0.001
5 | Clc1ccccc1 [chlorobenzene] | 0.002
6 | C=CCl [chloroethene] | 0.00039
7 | CCc1ccccc1 [ethylbenzene] | 0.0013
8 | ClC(Cl)=C(Cl)Cl [tetrachloroethene] | 0.00058
9 | ClC=C(Cl)Cl [trichloroethene] | 0.001
